In patent publication US20240366624A1, “METHODS AND COMPOSITIONS FOR TREATING THROMBOTIC DISEASE” (Washington University, priority 2023, published 2024):

Legend:
[1] = thiol-reacting (GSH) activity assay; assay type: biochemical
Source text: (§1) FIG. 17(A-F) is an exemplary embodiment of identification of novel ERO1α inhibitors by high throughput screening in accordance with the present disclosure. FIG. 17A: A scheme of an ERO1α activity assay. FIG. 17B: Screening of chemical libraries in the ERO1α activity assay. FIG. 17C: The inhibitory effect of selected compounds on ERO1α activity. FIG. 17D: The inhibitory effect of selected compounds on PDI activity. FIG. 17E: The inhibitory effect of selected compounds on H2O2 activity. FIG. 17F: The inhibitory effect of selected compounds on thiol-reacting activity. The data represent the mean±SD (n=3). *P<0.05, **P<0.01, ***P<0.001, and ****P<0.0001 vs. vehicle control, Student's t-test.
(§2) To identify a novel ERO1α inhibitor, 5800 compounds were screened using an ERO1α activity assay (FIG. 17A and FIG. 17B). […] The selected compounds were further tested in assays measuring PDI, antioxidant, and thiol-reacting activities (FIG. 17D through FIG. 17F). […] B12 inhibited P-selectin exposure and αIIbβ3 activation in agonist-activated mouse and human platelets in a concentration-dependent manner (FIG. 18B through FIG. 18E).

[2] = H2O2 (antioxidant) activity assay; assay type: biochemical
Source text: as §1, §2

ERO1α = target: T1, ERO1α (Homo sapiens, UniProt Q96HE7); assay: ERO1α activity assay; assay type: biochemical
T1 sequence (Q96HE7 24-468): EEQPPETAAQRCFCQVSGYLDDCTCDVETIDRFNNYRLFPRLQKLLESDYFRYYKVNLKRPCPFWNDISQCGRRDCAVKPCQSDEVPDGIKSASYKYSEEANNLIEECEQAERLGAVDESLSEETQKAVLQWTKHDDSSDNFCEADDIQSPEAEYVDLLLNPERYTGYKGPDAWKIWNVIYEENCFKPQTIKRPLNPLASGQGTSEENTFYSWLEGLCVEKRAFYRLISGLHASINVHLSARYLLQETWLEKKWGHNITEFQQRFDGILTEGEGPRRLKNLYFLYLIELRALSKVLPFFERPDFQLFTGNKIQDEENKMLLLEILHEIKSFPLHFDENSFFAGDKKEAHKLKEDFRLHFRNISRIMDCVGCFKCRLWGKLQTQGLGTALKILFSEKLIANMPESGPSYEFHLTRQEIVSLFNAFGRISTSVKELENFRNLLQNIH
Source text: as §1, §2

[3] = target: T2, MAO-A (monoamine oxidase A) (Homo sapiens, UniProt P21397); assay: MAO-A activity assay; assay type: biochemical
T2 sequence (P21397 1-527): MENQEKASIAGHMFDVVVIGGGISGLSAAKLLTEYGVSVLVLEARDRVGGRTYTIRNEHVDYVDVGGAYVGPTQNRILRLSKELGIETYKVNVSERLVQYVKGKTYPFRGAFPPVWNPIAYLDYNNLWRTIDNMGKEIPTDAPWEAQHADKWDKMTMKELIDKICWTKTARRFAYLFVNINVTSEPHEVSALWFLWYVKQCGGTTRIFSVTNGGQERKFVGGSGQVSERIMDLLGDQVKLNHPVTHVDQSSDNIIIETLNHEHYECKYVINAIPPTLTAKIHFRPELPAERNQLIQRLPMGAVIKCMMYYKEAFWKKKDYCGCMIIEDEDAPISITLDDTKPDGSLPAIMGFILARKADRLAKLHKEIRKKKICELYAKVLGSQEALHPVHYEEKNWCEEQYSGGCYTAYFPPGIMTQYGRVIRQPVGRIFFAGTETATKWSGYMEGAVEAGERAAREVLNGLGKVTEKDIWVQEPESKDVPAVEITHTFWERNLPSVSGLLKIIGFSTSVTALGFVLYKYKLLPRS

PDI = PDI (Homo sapiens, UniProt P07237); assay: PDI activity assay; assay type: biochemical
PDI, sequence (P07237 18-508, species assumed): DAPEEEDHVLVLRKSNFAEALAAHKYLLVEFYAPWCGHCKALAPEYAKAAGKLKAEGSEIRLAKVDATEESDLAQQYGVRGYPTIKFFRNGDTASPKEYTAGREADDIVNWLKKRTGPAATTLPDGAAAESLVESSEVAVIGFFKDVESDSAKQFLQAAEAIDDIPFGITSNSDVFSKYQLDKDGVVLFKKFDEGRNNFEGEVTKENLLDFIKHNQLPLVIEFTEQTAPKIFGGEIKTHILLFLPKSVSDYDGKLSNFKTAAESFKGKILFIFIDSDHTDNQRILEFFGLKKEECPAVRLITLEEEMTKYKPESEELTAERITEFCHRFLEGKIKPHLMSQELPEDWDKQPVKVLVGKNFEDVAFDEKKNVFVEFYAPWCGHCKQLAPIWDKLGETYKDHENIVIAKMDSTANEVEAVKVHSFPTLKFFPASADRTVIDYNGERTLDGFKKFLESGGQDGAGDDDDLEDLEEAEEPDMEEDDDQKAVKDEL
Source text: as §1, §2

human platelets = assay: Flow cytometry of P-selectin exposure and αIIbβ3 integrin activation, human platelets; assay type: cell-based; conditions: agonist-activated human platelets, concentration-dependent
Source text: FIG. 18(A-R) is an exemplary embodiment of novel small-molecule inhibitors recapitulating the defect in Ero1α (endoplasmic reticulum oxidoreductase 1a)-null platelets in accordance with the present disclosure. FIG. 18A: The structure of B12 and its inhibitory effect on ERO1α activity. FIG. 18(B-E): The inhibitory effect of B12 on P-selectin exposure and αIIbβ3 integrin activation in (FIG. 18B and FIG. 18C) mouse and (FIG. 18D and FIG. 18E) human platelets. FIG. 18F: The structure of B12-5 and its inhibitory effect on ERO1α activity. FIG. 18G: A docking model of B12-5-ERO1α (3AHQ) and flavin adenine dinucleotide (FAD)-ERO1α complex. There are pi-sulfur interactions of the phenothiazine head group (B112-5) or a tricyclic ring (FAD) with Met389 and Cys397. Also, there are H bond interactions between the tail/alkyl group and His255, Asn259, and Arg287. […] After incubation with a different concentration of B12-5, the specific interaction between B12-5 and ERO1α was measured by subtracting the nonspecific binding. The KD value was calculated from the Kon and Koff values. […] P values determined by ANOVA and Dunnett test (FIG. 18(B-E), FIG. 18(1-L), and FIG. 18(O-R) [for B12-5]) or Student t test (FIG. 18M, FIG. 18N, and FIG. 18(O-R) [for BAPTA (1,2-bis(o-aminophenoxy)ethane-N,N,N′,N′-tetraacetic acid)]). […]

mouse platelets = assay: Flow cytometry of P-selectin exposure and αIIbβ3 integrin activation, mouse platelets; assay type: cell-based; conditions: agonist-activated mouse platelets, concentration-dependent
Procedure: FIG. 10(A-E) is an exemplary embodiment of 15E9 not affecting platelet activation and aggregation in accordance with the present disclosure. Mouse platelets were treated with 0.02-0.03 (FIG. 10A P-selectin, FIG. 10B aIIbβ3) or 0.025 U/ml thrombin (FIG. 10C) in the presence of 10 μg/ml mouse IgG2a (IgG2a) or a blocking anti-ERO1α antibody (15E9). Flow cytometry (FIG. 10(A-B)) and aggregation (FIG. 10C) assays were performed. FIG. 10D: Human platelets were treated with 0.025 U/ml thrombin in the presence of mouse IgG2a (mIgG2a) or 10 μg/ml 15E9 and 16B6, followed by measuring aggregation. […] P values determined by unpaired Student's t-test (vs. mIgG1).
FIG. 18(A-R) is an exemplary embodiment of novel small-molecule inhibitors recapitulating the defect in Ero1α (endoplasmic reticulum oxidoreductase 1a)-null platelets in accordance with the present disclosure. […] After incubation with a different concentration of B12-5, the specific interaction between B12-5 and ERO1α was measured by subtracting the nonspecific binding. The KD value was calculated from the Kon and Koff values. […] P values determined by ANOVA and Dunnett test (FIG. 18(B-E), FIG. 18(1-L), and FIG. 18(O-R) [for B12-5]) or Student t test (FIG. 18M, FIG. 18N, and FIG. 18(O-R) [for BAPTA (1,2-bis(o-aminophenoxy)ethane-N,N,N′,N′-tetraacetic acid)]). […]

inhibition at 20 µM (ERO1α): 72.9 ± 12%
IC50 (ERO1α; read-out: IC50, ERO1α activity): 12.4 µM
inhibition at 100 µM [3]: 25.3 ± 5%
inhibition at 100 µM (PDI): 4.8 ± 1%
effect on PDI activity (PDI; at or up to 100 μM): without affecting
SMILES: O=C(CSc1nc(O)c2nc[nH]c2n1)N1c2ccccc2Sc2ccccc21 [B12]
GSH inhibition at 100 μM (%) ([1]; 100 μM): 5.1 ± 2%
effect on thiol-reacting activity ([1]; at or up to 100 μM): without affecting
H2O2 inhibition at 100 μM (%) ([2]; 100 μM): 4.7 ± 1%
effect on H2O2 (antioxidant) activity ([2]; at or up to 100 μM): without affecting
P-selectin exposure and αIIbβ3 activation (human platelets): inhibited
P-selectin exposure and αIIbβ3 activation (mouse platelets): inhibited
